Experimental data published in patent US20250041214A1, “INHALABLE OR INGESTIBLE LACTIC ACID COMPOSITIONS FOR THE TREATMENT OF CHRONIC LUNG DISEASE” (Alveolus Bio, Inc., priority 2021, published 2025).
“Also recorded” adds a separate entry of the source.

Tests used:
[1] = pure water; cited from earlier work
[2] = test system: Matrix Metalloproteinase-9 (MMP-9) mRNA; assay: MMP-9 mRNA in E. coli-treated HBE cells (dysbiosis model of lung epithelial cells), qRT-PCR; type: cell-based, human; details: 4 hours at 37° C.
Experimental: In FIG. 2, human primary epithelial (HBE) cells were seeded on a 6 well plate with 4×10^5 cells in each well. 16 hours later, the medium was changed to fresh DULBECCO'S Modified Eagle Medium/Nutrient Mixture F-12 (DMEM/F12) without antibiotic, and E. coli was added to the cells at a final concentration of 5.0×10^7 E. coli cells/ml. L(+) Lactic acid was added together with E. coli at a final lactic acid concentration of 5 mM, 10 mM, or 20 mM. The cells were incubated at 37° C. for 4 hours and then harvested with QIAZOL reagent. RNA was extracted according to the QIAZOL protocol. The level of Matrix Metalloproteinase-9 (MMP-9) mRNA was measured by quantitative real-time PCR (qRT-PCR). In FIG. 5, human bronchial epithelial (HBE) cells were seeded on a 6 well plate with 4×10^5 cells in each well. 16 hours later, the medium was changed to fresh DULBECCO'S Modified Eagle Medium/Nutrient Mixture F-12 (DMEM/F12) without antibiotic, and E. coli was added to the cells at a final concentration of 5.0×10^7 E. coli cells/ml. D(−) Lactic acid was added together with E. coli at a final lactic acid concentration of 0.25 ug/mL, 0.5 ug/mL, or 2 μg/mL. The cells were incubated at 37° C. for 4 hours and then harvested with QIAZOL reagent. RNA was extracted according to the QIAZOL protocol. The level of Matrix Metalloproteinase-9 (MMP-9) mRNA was measured by quantitative real-time PCR (qRT-PCR).

[3] = test system: Matrix Metalloproteinase-9 (MMP-9) mRNA; assay: MMP-9 mRNA in Caco-2 intestinal epithelial cells inoculated with E. coli, qRT-PCR; type: cell-based, human; details: Caco-2 cells inoculated with E. coli; L(+) lactic acid 1.5 mM, 3 mM or 6 mM; 4 hours at 37° C.
Experimental: In FIG. 3, human intestinal epithelial cells (IECs) from the Caco-2 cell line were seeded on a 6 well plate with 4×10^5 cells in each well. 16 hours later, the medium was changed to fresh DULBECCO'S Modified Eagle Medium/Nutrient Mixture F-12 (DMEM/F12) without antibiotic, and E. coli was added to the cells at a final concentration of 5.0×10^7 E. coli cells/ml. L(+) Lactic acid was added together with E. coli at a final lactic acid concentration of 1.5 mM, 3 mM, or 6 mM. The cells were incubated at 37° C. for 4 hours and then harvested with QIAZOL reagent. RNA was extracted according to the QIAZOL protocol. The level of Matrix Metalloproteinase-9 (MMP-9) mRNA was measured by quantitative real-time PCR (qRT-PCR).

MMP-9 mRNA = MMP-9 mRNA in A549 NSCLC adenocarcinoma cells inoculated with E. coli, real-time qPCR; type: cell-based; details: 0.25 μg to 4 ug L-LA, 4 hours at 37° C.
Experimental: In FIG. 4, 2×10^5 A549 cells were seeded in 500 μL growth medium per each well of a 24-well plate. Cells were treated with: (1) 2 uL PBS (control), (2) 5×10^8 E. coli cells (E. coli), (3) or 5×10*8 cells E. coli with 0.25 ug, 0.5 ug, 1 ug, 2 ug, or 4 ug L-lactic acid. The cells were incubated for 4 hours at 37° C. Cells were harvested, RNA was extracted with an RNA extraction kit, the concentration of total RNA was measured, cDNA was obtained using a High-Capacity cDNA Reverse Transcription Kit, and then a TAQMAN real-time qPCR protocol was performed on the cDNA.

Polyoxyethylene (20) sorbitan monooleate [polysorbate 80]
critical micelle concentration [1]: 0.012 mM

C[C@H](O)C(=O)O [L-lactic acid]
MMP-9 mRNA levels ([2]; HBE cells treated with E. coli, L(+) lactic acid 5 mM, 10 mM or 20 mM): MMP-9 reduction; also recorded: decreased
MMP-9 mRNA levels [3]: decreased
MMP-9 mRNA levels (MMP-9 mRNA): decreased

C[C@@H](O)C(=O)O [D-lactic acid]
MMP-9 mRNA levels ([2]; HBE cells inoculated with E. coli, 0.25 μg to 2 ug D-LA): no statistical difference
